# Test results published in patent US20110092529A1, “1,2,4-Triazole Derivatives and Their Use as Oxytocin Antagonists” (Pfizer Inc., priority 2005, published 2011).
# pKi: −log10 of the molar value.
# Molecular target: T1, oxytocin receptor (CHO-OTR/NFAT-β-Lactamase cells) (Homo sapiens, UniProt P30559)
# T1 construct: expressed in transfected cells; host or cells: CHO (CHO-OTR line carrying an NFAT-β-lactamase reporter)
# T1 sequence (P30559 1-389): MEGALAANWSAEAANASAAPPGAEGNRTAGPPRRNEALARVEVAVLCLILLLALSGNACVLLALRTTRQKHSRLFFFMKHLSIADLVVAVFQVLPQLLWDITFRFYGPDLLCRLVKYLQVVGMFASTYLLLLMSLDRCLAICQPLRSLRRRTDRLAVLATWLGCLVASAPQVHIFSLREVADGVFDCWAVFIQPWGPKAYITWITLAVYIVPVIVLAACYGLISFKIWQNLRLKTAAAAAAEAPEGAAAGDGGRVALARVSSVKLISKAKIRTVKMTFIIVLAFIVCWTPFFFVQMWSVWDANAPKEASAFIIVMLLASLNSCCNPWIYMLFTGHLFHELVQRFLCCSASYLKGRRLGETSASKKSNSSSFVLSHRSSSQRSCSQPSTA
# Experiment: Oxytocin Receptor Beta-Lactamase Assay
# Assay type: cell-based
# Conditions: oxytocin stimulation 4 hours, read-out: oxytocin antagonist activity, expressed as a Ki value
# Procedure: A suitable assay for determining the oxytocin antagonist activity of a compound is detailed herein below.
# Oxytocin Receptor Beta-Lactamase Assay
# Cells used are CHO-OTR/NFAT-β-Lactamase. The NFAT-β-lactamase expression construct was transfected into the CHO-OTR cell line and clonal populations were isolated via fluorescence activated cell sorting (FACS). An appropriate clone was selected to develop the assay.
# Recovery of cells—A vial of frozen cells is thawed rapidly in 37° C. water bath and the cell suspension transferred into a T225 flask with 50 ml of fresh growth medium and then incubated at 37° C., 5% CO2 in an incubator until the cells adhered to the flask Replace media with 50 ml of fresh growth media the following day.
# Culturing cells—CHO—OTR—NFAT-βLactamase cells were grown in growth medium. Cells were harvested when they reached 80-90% confluence removing the medium and washing with pre-warmed PBS. PBS was then removed and Trypsin/EDTA added (3 mls for T225 cm^2 flask) before incubating for 5 min in 37° C./5% CO2 incubator. When cells were detached, pre-warmed growth media was added (7 mls for T225 cm^2 flask) and the cells re-suspended and mixed gently by pipetting to achieve single cell suspension. […]
# Cells grown at 80-90% confluence were harvested and counted. […]
# Preparation of 1 ml of 6× Loading Buffer with Enhanced Loading Protocol (this requires scale-up according to number of plates to be screened) • 12 μl of solution A (1 mM CCF4-AM in Dry DMSO) was added to 60 μl of solution B (100 mg/ml Pluronic-F127 in DMSO+0.1% Acetic Acid) and vortexed. • The resulting solution was added to 925 μl of solution C (24% w/w PEG400, 18% TR40 v/v in water). • 75 μl of solution D was added (200 mM probenecid in 200 mM NaOH). • 10 μl of 6× Loading Buffer was added to all wells and incubated for 1.5 hrs-2 hrs at room temperature in the dark. • The plates were read using an LJL Analyst, Excitation 405 nm, Emission 450 nm and 530 nm, gain optimal, lagtime 0.40 μs integration, 4 flashes, bottom reading.
row,Structure (SMILES),pKi
1,"COCc1nnc(N2CCC3(CC2)OCc2ccccc23)n1-c1ccc(OC)nc1 [Example 17, 1′-[5-(methoxymethyl)-4-(6-methoxypyridin-3-yl)-4H-1,2,4-triazol-3-yl]-3H-spiro[2-benzofuran-1,4′-piperidine]]",7.99
2,"COc1ccc(-n2c(C)nnc2N2CCC3(CC2)COc2ccccc23)cn1 [Example 1, 1′-[4-(6-methoxypyridin-3-yl)-5-methyl-4H-1,2,4-triazol-3-yl]spiro[1-benzofuran-3,4′-piperidine]]",7.89
3,"COCc1nnc(N2CCC3(CC2)OCc2cc(F)ccc23)n1-c1ccc(OC)nc1 [Example 6, 5-fluoro-1′-[5-(methoxymethyl)-4-(6-methoxypyridin-3-yl)-4H-1,2,4-triazol-3-yl]-3H-spiro[2-benzofuran-1,4′-piperidine]]",7.94
